Reference: ChEMBL document CHEMBL5055672, “Design, Synthesis, Biological Evaluation, and Computational Studies of Novel Fluorinated Candidates as PI3K Inhibitors: Targeting Fluorophilic Binding Sites” (J Med Chem, 2021)

Legend:
CCRF-CEM = test: Cytotoxicity against human CCRF-CEM cells assessed as growth inhibition at 10 uM after 48 hrs by sulforhodamine B assay; type: functional; conditions: read-out: GI
HL-60(TB) = test: Cytotoxicity against human HL-60(TB) cells assessed as growth inhibition at 10 uM after 48 hrs by sulforhodamine B assay; type: functional; conditions: read-out: GI
K562 = test: Cytotoxicity against human K562 cells assessed as growth inhibition at 10 uM after 48 hrs by sulforhodamine B assay; type: functional; conditions: read-out: GI
MOLT-4 = test: Cytotoxicity against human MOLT-4 cells assessed as growth inhibition at 10 uM after 48 hrs by sulforhodamine B assay; type: functional; conditions: read-out: GI
RPMI-8226 = test: Cytotoxicity against human RPMI-8226 cells assessed as growth inhibition at 10 uM after 48 hrs by sulforhodamine B assay; type: functional; conditions: read-out: GI
SR = test: Cytotoxicity against human SR cells assessed as growth inhibition at 10 uM after 48 hrs by sulforhodamine B assay; type: functional; conditions: read-out: GI
A549 = test: Cytotoxicity against human A549 cells assessed as growth inhibition at 10 uM after 48 hrs by sulforhodamine B assay; type: functional; conditions: read-out: GI
NCI-H226 = test: Cytotoxicity against human NCI-H226 cells assessed as growth inhibition at 10 uM after 48 hrs by sulforhodamine B assay; type: functional; conditions: read-out: GI
NCI-H522 = test: Cytotoxicity against human NCI-H522 cells assessed as growth inhibition at 10 uM after 48 hrs by sulforhodamine B assay; type: functional; conditions: read-out: GI
HCC 2998 = test: Cytotoxicity against human HCC 2998 cells assessed as growth inhibition at 10 uM after 48 hrs by sulforhodamine B assay; type: functional; conditions: read-out: GI
HCT-15 = test: Cytotoxicity against human HCT-15 cells assessed as growth inhibition at 10 uM after 48 hrs by sulforhodamine B assay; type: functional; conditions: read-out: GI
HT-29 = test: Cytotoxicity against human HT-29 cells assessed as growth inhibition at 10 uM after 48 hrs by sulforhodamine B assay; type: functional; conditions: read-out: GI
KM12 = test: Cytotoxicity against human KM12 cells assessed as growth inhibition at 10 uM after 48 hrs by sulforhodamine B assay; type: functional; conditions: read-out: GI
LOX IMVI = test: Cytotoxicity against human LOX IMVI cells assessed as growth inhibition at 10 uM after 48 hrs by sulforhodamine B assay; type: functional; conditions: read-out: GI
M14 = test: Cytotoxicity against human M14 cells assessed as growth inhibition at 10 uM after 48 hrs by sulforhodamine B assay; type: functional; conditions: read-out: GI
UACC-62 = test: Cytotoxicity against human UACC-62 cells assessed as growth inhibition at 10 uM after 48 hrs by sulforhodamine B assay; type: functional; conditions: read-out: GI
OVCAR-4 = test: Cytotoxicity against human OVCAR-4 cells assessed as growth inhibition at 10 uM after 48 hrs by sulforhodamine B assay; type: functional; conditions: read-out: GI
NCI/ADR-RES = test: Cytotoxicity against human NCI-ADR-RES cells assessed as growth inhibition at 10 uM after 48 hrs by sulforhodamine B assay; type: functional; conditions: read-out: GI
ACHN = test: Cytotoxicity against human ACHN cells assessed as growth inhibition at 10 uM after 48 hrs by sulforhodamine B assay; type: functional; conditions: read-out: GI
CAKI-1 = test: Cytotoxicity against human CAKI-1 cells assessed as growth inhibition at 10 uM after 48 hrs by sulforhodamine B assay; type: functional; conditions: read-out: GI
SN12C = test: Cytotoxicity against human SN12C cells assessed as growth inhibition at 10 uM after 48 hrs by sulforhodamine B assay; type: functional; conditions: read-out: GI
UO-31 = test: Cytotoxicity against human UO-31 cells assessed as growth inhibition at 10 uM after 48 hrs by sulforhodamine B assay; type: functional; conditions: read-out: GI
DU-145 = test: Cytotoxicity against human DU-145 cells assessed as growth inhibition at 10 uM after 48 hrs by sulforhodamine B assay; type: functional; conditions: read-out: GI
MCF7 [1] = test: Cytotoxicity against human MCF7 cells assessed as growth inhibition at 10 uM after 48 hrs by sulforhodamine B assay; type: functional; conditions: read-out: GI
T47D = test: Cytotoxicity against human T47D cells assessed as growth inhibition at 10 uM after 48 hrs by sulforhodamine B assay; type: functional; conditions: read-out: GI
MCF7 [2] = test: Antiproliferative activity against human MCF7 cells assessed as inhibition of cell growth incubated for 48 hrs by MTT assay; type: functional, cell-based; conditions: MCF7, 48 h
MCF-10A = test: Cytotoxicity against human MCF10A cells assessed as inhibition of cell growth incubated for 48 hrs by MTT assay; type: cell-based
[3] = Selectivity index, ratio of IC50 for human MCF-10A cells to IC50 for human MCF7 cells; type: toxicity; conditions: MCF-10A cells versus MCF7 cells, read-out: Ratio IC50
[4] = biological target: Phosphatidylinositol 4,5-bisphosphate 3-kinase catalytic subunit alpha isoform (Homo sapiens, UniProt P42336); test: Inhibition of PI3Kalpha (unknown origin) using PIP2 as substrate preincubated for 10 mins followed by substrate addition and measured after 1 hr by ELISA
Chain of Phosphatidylinositol 4,5-bisphosphate 3-kinase catalytic subunit alpha isoform (P42336 whole entry, canonical isoform): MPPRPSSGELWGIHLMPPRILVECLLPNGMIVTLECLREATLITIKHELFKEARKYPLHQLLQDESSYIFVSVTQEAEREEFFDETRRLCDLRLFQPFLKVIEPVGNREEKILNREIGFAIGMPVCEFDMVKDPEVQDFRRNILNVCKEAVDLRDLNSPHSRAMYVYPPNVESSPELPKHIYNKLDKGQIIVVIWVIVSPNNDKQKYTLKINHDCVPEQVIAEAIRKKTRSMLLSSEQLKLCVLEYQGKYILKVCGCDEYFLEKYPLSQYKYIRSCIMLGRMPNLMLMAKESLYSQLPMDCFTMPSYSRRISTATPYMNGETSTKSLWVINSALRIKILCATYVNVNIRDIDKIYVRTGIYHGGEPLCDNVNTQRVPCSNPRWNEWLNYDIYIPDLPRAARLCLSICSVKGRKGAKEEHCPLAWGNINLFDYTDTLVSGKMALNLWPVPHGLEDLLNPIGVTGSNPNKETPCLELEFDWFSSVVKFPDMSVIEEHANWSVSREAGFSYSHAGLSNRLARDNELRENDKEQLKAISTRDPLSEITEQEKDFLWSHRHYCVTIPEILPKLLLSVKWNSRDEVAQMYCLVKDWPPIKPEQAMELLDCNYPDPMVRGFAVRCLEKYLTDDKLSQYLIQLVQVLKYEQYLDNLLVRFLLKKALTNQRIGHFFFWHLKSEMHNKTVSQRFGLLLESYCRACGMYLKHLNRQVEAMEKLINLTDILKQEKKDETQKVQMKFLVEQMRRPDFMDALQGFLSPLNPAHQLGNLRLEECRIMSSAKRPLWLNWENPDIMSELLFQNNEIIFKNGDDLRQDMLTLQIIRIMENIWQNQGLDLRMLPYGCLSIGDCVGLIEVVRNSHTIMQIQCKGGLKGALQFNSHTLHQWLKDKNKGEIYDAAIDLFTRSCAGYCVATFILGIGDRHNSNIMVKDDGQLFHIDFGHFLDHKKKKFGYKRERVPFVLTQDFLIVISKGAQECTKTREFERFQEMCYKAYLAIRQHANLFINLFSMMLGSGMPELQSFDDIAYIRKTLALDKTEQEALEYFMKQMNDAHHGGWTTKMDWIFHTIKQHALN

MCF7 [5] = test: Induction of cell cycle arrest in human MCF7 cells assessed as accumulation of cells at G phase at IC50 concentration by Propidium iodide staining based flow cytometric analysis (reference value: 1.76%); type: functional
MCF7 [6] = test: Induction of cell cycle arrest in human MCF7 cells assessed as accumulation of cells at G1 phase at IC50 concentration by Propidium iodide staining based flow cytometric analysis (reference value: 61.45%); type: functional
MCF7 [7] = test: Induction of cell cycle arrest in human MCF7 cells assessed as accumulation of cells at G2/M phase at IC50 concentration by Propidium iodide staining based flow cytometric analysis (reference value: 10.94%); type: functional
MCF7 [8] = test: Induction of cell cycle arrest in human MCF7 cells assessed as accumulation of cells at S phase at IC50 concentration by Propidium iodide staining based flow cytometric analysis (reference value: 27.61%); type: functional
MCF7 [9] = test: Induction of apoptosis in human MCF7 cells assessed as early apoptotic cells at 2.25 uM after 48 hrs by annexin V-FITC/propidium iodide staining based flow cytometric analysis (reference value: 0.36%); type: functional
MCF7 [10] = test: Induction of apoptosis in human MCF7 cells assessed as late apoptotic cells at 2.25 uM after 48 hrs by annexin V-FITC/propidium iodide staining based flow cytometric analysis (reference value: 0.14%); type: functional
MCF7 [11] = test: Induction of apoptosis in human MCF7 cells assessed as necrotic cells at 2.25 uM after 48 hrs by annexin V-FITC/propidium iodide staining based flow cytometric analysis (reference value: 1.26%); type: functional
[12] = biological target: Phosphatidylinositol 4,5-bisphosphate 3-kinase catalytic subunit beta isoform (Homo sapiens, UniProt P42338); test: Inhibition of PI3Kbeta (unknown origin) using PIP2 as substrate preincubated for 10 mins followed by substrate addition and measured after 1 hr by ELISA
Chain of Phosphatidylinositol 4,5-bisphosphate 3-kinase catalytic subunit beta isoform (P42338 whole entry, canonical isoform): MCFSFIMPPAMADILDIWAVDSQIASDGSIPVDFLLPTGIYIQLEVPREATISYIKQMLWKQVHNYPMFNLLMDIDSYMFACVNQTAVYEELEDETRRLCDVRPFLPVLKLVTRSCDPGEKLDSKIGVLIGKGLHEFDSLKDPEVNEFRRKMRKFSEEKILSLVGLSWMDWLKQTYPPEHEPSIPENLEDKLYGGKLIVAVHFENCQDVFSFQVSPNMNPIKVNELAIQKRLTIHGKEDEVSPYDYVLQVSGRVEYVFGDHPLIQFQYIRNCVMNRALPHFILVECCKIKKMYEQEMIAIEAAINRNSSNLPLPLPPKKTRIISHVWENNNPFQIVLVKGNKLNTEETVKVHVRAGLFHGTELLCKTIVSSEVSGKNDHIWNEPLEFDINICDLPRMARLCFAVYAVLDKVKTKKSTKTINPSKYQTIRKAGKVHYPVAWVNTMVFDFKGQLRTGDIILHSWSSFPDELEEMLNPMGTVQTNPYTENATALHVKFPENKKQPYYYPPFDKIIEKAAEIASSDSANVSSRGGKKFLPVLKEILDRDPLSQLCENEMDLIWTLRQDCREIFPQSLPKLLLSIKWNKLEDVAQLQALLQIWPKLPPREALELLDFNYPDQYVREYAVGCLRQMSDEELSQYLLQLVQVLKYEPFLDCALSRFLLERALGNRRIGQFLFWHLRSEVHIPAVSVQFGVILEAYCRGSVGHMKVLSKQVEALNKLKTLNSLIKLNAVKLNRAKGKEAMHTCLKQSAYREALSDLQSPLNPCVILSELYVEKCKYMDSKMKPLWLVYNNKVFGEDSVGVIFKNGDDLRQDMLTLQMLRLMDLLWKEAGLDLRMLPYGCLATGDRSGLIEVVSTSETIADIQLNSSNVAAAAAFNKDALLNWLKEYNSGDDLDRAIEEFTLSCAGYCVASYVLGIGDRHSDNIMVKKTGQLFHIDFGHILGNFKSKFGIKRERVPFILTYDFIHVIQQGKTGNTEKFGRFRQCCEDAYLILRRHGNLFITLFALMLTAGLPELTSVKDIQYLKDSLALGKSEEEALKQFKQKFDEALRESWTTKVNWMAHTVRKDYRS

[13] = biological target: T1, Phosphatidylinositol 4,5-bisphosphate 3-kinase catalytic subunit delta isoform (Homo sapiens, UniProt O00329); test: Inhibition of PI3Kdelta (unknown origin) using PIP2 as substrate preincubated for 10 mins followed by substrate addition and measured after 1 hr by ELISA
T1 sequence (O00329 whole entry): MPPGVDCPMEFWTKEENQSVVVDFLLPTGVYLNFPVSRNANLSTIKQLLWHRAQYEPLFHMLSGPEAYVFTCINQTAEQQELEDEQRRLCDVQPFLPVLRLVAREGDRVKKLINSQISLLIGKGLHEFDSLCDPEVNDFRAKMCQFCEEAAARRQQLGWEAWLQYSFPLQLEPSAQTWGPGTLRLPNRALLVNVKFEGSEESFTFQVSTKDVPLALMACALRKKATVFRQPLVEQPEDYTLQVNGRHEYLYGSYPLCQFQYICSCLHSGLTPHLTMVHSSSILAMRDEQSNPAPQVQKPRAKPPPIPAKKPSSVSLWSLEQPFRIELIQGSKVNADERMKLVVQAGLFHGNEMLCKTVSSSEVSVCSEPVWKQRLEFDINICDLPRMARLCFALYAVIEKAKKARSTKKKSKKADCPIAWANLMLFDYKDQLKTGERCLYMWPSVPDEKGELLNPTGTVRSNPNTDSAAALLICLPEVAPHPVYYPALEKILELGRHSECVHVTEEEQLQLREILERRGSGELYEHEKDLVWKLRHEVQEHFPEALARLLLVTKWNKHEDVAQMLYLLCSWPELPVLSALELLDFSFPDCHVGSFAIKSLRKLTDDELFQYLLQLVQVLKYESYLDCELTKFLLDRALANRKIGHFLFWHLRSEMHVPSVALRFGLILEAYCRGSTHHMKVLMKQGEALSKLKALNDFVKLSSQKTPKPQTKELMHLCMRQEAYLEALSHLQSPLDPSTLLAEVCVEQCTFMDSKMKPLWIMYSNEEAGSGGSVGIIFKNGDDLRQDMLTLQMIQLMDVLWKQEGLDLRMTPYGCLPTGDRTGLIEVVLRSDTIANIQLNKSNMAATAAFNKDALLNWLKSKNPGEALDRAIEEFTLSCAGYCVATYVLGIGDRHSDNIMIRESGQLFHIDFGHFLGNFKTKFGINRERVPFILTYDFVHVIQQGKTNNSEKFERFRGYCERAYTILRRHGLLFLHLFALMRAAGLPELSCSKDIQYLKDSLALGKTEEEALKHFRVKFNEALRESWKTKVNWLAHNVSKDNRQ

## FC(F)(F)COc1ccc(-c2nnc(Nc3ccccc3)s2)cc1
CCRF-CEM
  inhibition of growth at 10 µM: 19.2%
HL-60(TB)
  inhibition of growth at 10 µM: 12.6%
K562
  inhibition of growth at 10 µM: 57.4%
MOLT-4
  inhibition of growth at 10 µM: 24.1%
RPMI-8226
  inhibition of growth at 10 µM: 13.4%
SR
  inhibition of growth at 10 µM: 39.3%
A549
  inhibition of growth at 10 µM: 15%
NCI-H226
  inhibition of growth at 10 µM: 20.5%
NCI-H522
  inhibition of growth at 10 µM: 36.7%
HCC 2998
  inhibition of growth at 10 µM: 27.5%
HCT-15
  inhibition of growth at 10 µM: 50.9%
HT-29
  inhibition of growth at 10 µM: 45.7%
KM12
  inhibition of growth at 10 µM: 57.2%
LOX IMVI
  inhibition of growth at 10 µM: 18.8%
M14
  inhibition of growth at 10 µM: 12.8%
UACC-62
  inhibition of growth at 10 µM: 24.4%
OVCAR-4
  inhibition of growth at 10 µM: 12.8%
NCI/ADR-RES
  inhibition of growth at 10 µM: 10.8%
ACHN
  inhibition of growth at 10 µM: 16.1%
CAKI-1
  inhibition of growth at 10 µM: 50%
SN12C
  inhibition of growth at 10 µM: 13.1%
UO-31
  inhibition of growth at 10 µM: 21.4%
DU-145
  inhibition of growth at 10 µM: 14.8%
MCF7 [1]
  inhibition of growth at 10 µM: 21.2%
T47D
  inhibition of growth at 10 µM: 27.7%
MCF7 [2]
  IC50: 2.25 µM
MCF-10A
  IC50: 38 µM
[3]
  selectivity ratio: 16.9
[4]
  IC50: 19.4 µM
MCF7 [5]
  Activity: 26.96%
MCF7 [6]
  Activity: 66.34%
MCF7 [7]
  Activity: 4.55%
MCF7 [8]
  Activity: 29.11%
MCF7 [9]
  Activity: 4.15%
MCF7 [10]
  Activity: 13.09%
MCF7 [11]
  Activity: 9.72%
[12]
  IC50: 30.7 µM
[13]
  IC50: 73.7 µM
